Data set [1] is described as follows: Cytotoxicity in HeLa cells (MTS). It is filed as cell-based. As to conditions: human. How it is done:
Cytotoxicity assays: Concurrent assessment of cytotoxicity was also performed for each study in the same cell line and with the same compound exposure. For AdV cytotoxicity assay, at 6d post-infection plates were stained with tetrazolium-based MTS (CellTiter96 Reagent, Promega) and the microtiter plates were read spectrophotometrically at 490/650nm (Molecular Devices).

Data set [2] addresses T1, histamine H1 receptor (Homo sapiens, UniProt P35367). Nature of the data set: Histamine H1 receptor binding (off-target panel). As to conditions: Study No. KS-1016 and PE-50946871.
Data set [3] concerns the target T1, histamine H1 receptor. Nature of the data set: Histamine H1 receptor functional activity assay, agonist. As to conditions: Study No. KS-1017, read-out: IC50 (50% inhibitory concentration). It is filed as biochemical.
In data set [4] the test system is Human adenovirus type 5. Nature of the data set: Adenovirus virus yield (TCID50) assay in HeLa cells. The data set is classed as cell-based. As to conditions: Human mastadenovirus C. As for the experimental part: Human adenovirus type 5 was obtained from ATCC and cultured in HeLa cells under standard conditions.
Prior to assessing cell viability using MTS, supernatants were collected from plates and titrated to determine virus yield. Serial dilutions of supernatants were incubated on HeLa cells for 3 days. Following incubation, wells were visually scored for infection and TCID50, EC50, CC50 and SI were calculated for each sample.

Data set [5] can be described thus: Cytotoxicity in COS7 cells, concurrent with JCPyV assays. The data set is classed as cell-based. As to conditions: African green monkey, COS-7 cells. As for the experimental part:
(§1) Cytotoxicity assays: Concurrent assessment of cytotoxicity was also performed for each study in the same cell line and with the same compound exposure.
For KSHV, cell viability was assessed with the CellTiter-Glo Luminescent Cell Viability Assay (Promega) using manufacturer’s protocol. Luminescence was quantified on a luminometer. Standard methods were used to calculate the 50% cytotoxic level (CC50).
Cytotoxicity assay was performed in a manner analogous to KSHV above. Evaluation of compounds against JCPyV virus was done in COS7 cells with the plasmid pMP508 to provide a standard curve for quantification.

A short description of data set [6]: Cytotoxicity in HEK293 cells (cell counter viability). It is filed as cell-based. The conditions noted are these: human, HPV-11 primary screen. How it is done: as §1
(§2) HPV cytotoxicity assay was performed at the time of viral harvest by scoring cells in a BioRad Automatic Cell Counter for cell viability.

Data set [7] is described as follows: Cytotoxicity in primary human keratinocytes (PHK). As to conditions: HPV-18 secondary screen, PHKs. It is filed as cell-based. As for the experimental part: as §1, §2
For secondary assays, the amplification of HPV-18 DNA was determined in an organotypic squamous epithelial raft culture of PHKs. Whole genomic HPV-18 plasmids were generated in plasmid-transfected PHKs and developed into organotypic cultures as described. Based on the results of a 3-day toxicity assay, concentrations of test compound were added to a subset of raft cultures from day 6 through day 13 when the cultures were harvested. Similarly treated normal PHK raft cultures were also prepared to assess toxicity of uninfected tissue. One set of cultures were fixed in 10% buffered formalin, paraffin embedded and sectioned for in situ assay. Sections were stained with hematoxylin and eosin. Total DNA harvest from unfixed raft cultures was used to determine the HPV-18 copy number/per cell by qPCR. Inhibition was expressed as % of viral DNA copies relative to the untreated cultures.

In data set [8] the target is T1, histamine H1 receptor. The data set can be described thus: Histamine H1 receptor functional activity assay, antagonist. The data set is classed as biochemical. As to conditions: Study No. KS-1017, read-out: IC50 (50% inhibitory concentration).
In data set [9] the test system is Murine CMV strain Smith. The data set can be described thus: MCMV plaque reduction assay in MEF cells. The data set is classed as cell-based, murine cytomegalovirus. The conditions noted are these: primary screen. How it is done: Murine CMV strain Smith was obtained from Earl Kern and assayed in mouse embryonic fibroblast cells (MEF) immortalized by telomerization. Guinea pig CMV strain 22122 was obtained from the ATCC and assayed in primary guinea pig lung cells (GPL). Both MEF and GPL cells were prepared at the UAB tissue procurement facility with IRB approval as previously described.
Plaque reduction assays for MCMV, GPCMV were performed on monolayers of GPL (GPCMV) or MEF (MCMV) cells prepared in six-well plates and incubated at 37°C for 2d to allow the cells to reach confluency. Media was then aspirated from the wells and 0.2ml of virus was added to each of three wells to yield 20–30 plaques in each well. The virus was allowed to adsorb to the cells for 1h and the plates were agitated every 15min. Compounds were diluted in assay media consisting of MEM with Earl’s salts supplemented with 2% FBS, L-glutamine, penicillin, and gentamycin. Solutions ranging from 0.0032–10μM (primary) or 0.032–100μM (secondary) were added to triplicate wells and the plates were incubated for various times, depending on the virus used. For MCMV and GPCMV, the cell monolayer was stained with 1% neutral red solution for 4h at which time the stain was aspirated and cells were washed with PBS. […]

The subject of data set [10] is Epstein-Barr virus (EBV) Akata strain. Nature of the data set: EBV secondary assay, qPCR of viral DNA in induced Akata cells. The data set is classed as cell-based. As for the experimental part:
EBV Akata strain was assayed in Akata cells (John Sixbey, LSU) latently infected with EBV (and therefore oncogenic). Cells were maintained in RPMI 1640, (Mediatech) with 10% FBS (Hyclone), L-glutamine, penicillin and gentamicin.
Secondary assay for EBV were performed in Akata cells that were induced to undergo a lytic infection with 50μg/ml of a goat anti-human IgG antibody by methods we reported previously. Experimental compounds were diluted in round bottom 96-well plates to yield concentrations ranging from 0.0032–100μM. Akata cells were added to the plates at a concentration of 4×10^4 cells per well and […]. Assay plates were incubated for seven days at 37°C. For all assays, the replication of the virus was assessed by the quantification of viral DNA. For primer sequences, please see S1 Table. EBV DNA was purified according to manufacturer’s instructions (Wizard SV 96 Genomic DNA Purification System). The purified DNA was then subjected to qPCR that amplified a fragment corresponding to nucleotides 96802–97234 in the EBV genome (AJ507799). Plasmid pMP218 containing a DNA sequences corresponding to nucleotides 14120–14182 (AF148805.2) was used to provide absolute quantification of viral DNA. Compound concentrations sufficient to reduce genome copy number by 50% were calculated from experimental data.
For orientation: Real-time PCR tracks product formation cycle by cycle.

A short description of data set [11]: Cytotoxicity in GPL cells. It is filed as cell-based. The conditions noted are these: primary guinea pig lung cells (GPL), Guinea pig CMV primary screen. As for the experimental part: Cytotoxicity assays: Concurrent assessment of cytotoxicity was also performed for each study in the same cell line and with the same compound exposure. For HCMV cytotoxicity assay was determined via neutral red uptake assay and was conducted as reported previously in HFF cells. Optical densities were determined at 550nm. Cytotoxicity assay was performed in a manner analogous to HCMV (see above).

T1 sequence (P35367 whole entry, species assumed): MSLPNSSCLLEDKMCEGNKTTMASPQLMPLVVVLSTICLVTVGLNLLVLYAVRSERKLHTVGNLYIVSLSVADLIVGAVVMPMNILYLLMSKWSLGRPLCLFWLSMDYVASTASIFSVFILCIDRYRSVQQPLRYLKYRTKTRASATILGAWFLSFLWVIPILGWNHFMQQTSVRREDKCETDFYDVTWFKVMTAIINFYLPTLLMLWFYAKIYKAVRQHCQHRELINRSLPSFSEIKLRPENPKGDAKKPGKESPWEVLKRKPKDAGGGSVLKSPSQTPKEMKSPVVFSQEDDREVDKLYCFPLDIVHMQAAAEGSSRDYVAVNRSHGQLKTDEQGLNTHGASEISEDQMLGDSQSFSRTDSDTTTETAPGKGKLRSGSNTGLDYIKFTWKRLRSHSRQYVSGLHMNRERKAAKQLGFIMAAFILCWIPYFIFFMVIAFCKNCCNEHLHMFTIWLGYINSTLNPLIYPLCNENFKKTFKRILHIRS

Consider `O=C(C=Cn1cnc(-c2cc(C(F)(F)F)cc(C(F)(F)F)c2)n1)NNc1ccccn1` (stereo in doubt) [verdinexor, (E)-3-[3-[3,5-bis(trifluoromethyl)phenyl]-1,2,4-triazol-1-yl]-N'-pyridin-2-ylprop-2-enehydrazide], for which the values for the half-maximal cytotoxic concentration (CC50) at 6 d in data set [1] (Ad5 primary screen) and in [1] (Ad5 secondary screen) were 0.18 µM and 0.1 µM, respectively. Also, 10 µM produced 33% inhibition in data set [2]. Moreover, the IC50 in data set [3] and in data set [8] was greater than 10 µM in each case. The EC50 was greater than 0.18 µM in data set [4] (Ad5, primary screen); less than 0.03 µM in data set [4] (Ad5, secondary screen); 0.19 µM in data set [9]; 0.05 µM in data set [10] (human gammaherpesvirus 4, Akata). Also, the CC50 is 10 µM in data set [5] (JCPyV primary screen); 73.3 µM in data set [5] (JCPyV secondary screen); 89.5 µM in [6]; 8.3 µM in data set [7]; 2 µM in data set [11]. The “SI (Selectivity Index, CC50/EC50)” value in data set [10] (EBV, secondary screen, qPCR) is listed as 7.

In general, CC50 refers to the concentration at which the toxic effect on the cells reaches its halfway point. A high value points to better tolerance by the cells. One may read the inhibition as the drop in the measured response relative to a control, in per cent. A high value points to a response far below the control. As a reminder, the EC50 is the midpoint of the concentration-response curve. A higher EC50 goes with a less potent agent.
